Data reported in US9839618B2, “Compositions and methods relating to proliferative diseases” (The Penn State Research Foundation, priority 2010, dated 2017).

Experiments:
[1] = system: UACC 903 human melanoma cell tumors; test: Melanoma xenograft tumor development, UACC 903; format: in vivo, mice
Procedure: (§1) The efficacy of leelamine for inhibiting melanoma tumor development is evaluated on preexisting tumors formed following subcutaneous injection of cancer cells into nude mice. Tumor kinetics are measured by subcutaneous injection of 1.0×10^6 UACC 903 or 1205 Lu cells in 0.2 mL of DMEM supplemented with 10% FBS subcutaneously injected above both left and right rib cages of 3- to 4-wk-old female athymic nude-Foxn1^nu mice (Harlan Laboratories, Indianapolis, Ind.). Six days later, when a fully vascularized tumor (50-75 mm^3) has formed, mice are randomly divided into DMSO vehicle control and experimental groups (5 mice/group; 2 tumors/mouse) and treated intraperitoneally with 2.5-7.5 mg/kg body weight leelamine daily for 3-4 weeks. Body weight (grams) and dimensions of the developing tumors (mm^3) are measured at the time of drug treatment as described in Sharma, A. et al., Clin Cancer Res, 2009, 15:1674-85; and Madhunapantula, S. V. et al., Mol Cancer Ther, 2008, 7:1297-308.
In this example, leelamine (40, 60, or 80 mg/kg body weight) is administered orally to 4-6 weeks old nude mice bearing UACC903 melanoma cell tumors (50-100 mm^3). Sizes of developing tumors are measured. […] Values±S.E.M. (n=5)
Tumor kinetics are measured by subcutaneous injection of 1.0×10^6 UACC 903 or 1205 Lu cells in 0.2 mL of DMEM supplemented with 10% FBS subcutaneously injected above both left and right rib cages of 3- to 4-wk-old female athymic nude-Foxn1^nu mice (Harlan Laboratories, Indianapolis, Ind.). Six days later, when a fully vascularized tumor (50-75 mm^3) has formed, mice are randomly divided into control and experimental groups (5 mice/group; 2 tumors/mouse) and treated with 30-mg/kg body weight of empty liposome vehicle, abietic acid liposomes or Nanolipolee-007 intravenously each day for 3-4 weeks. Body weight (grams) and dimensions of the developing tumors (mm^3) are measured at the time of drug treatment.

[2] = system: 1205 Lu human melanoma cell tumors; test: Melanoma xenograft tumor development, 1205 Lu; format: in vivo, mice; conditions: intraperitoneally 2.5-7.5 mg/kg daily for 3-4 weeks, compared to DMSO vehicle
Procedure: as §1
Tumor kinetics are measured by subcutaneous injection of 1.0×10^6 UACC 903 or 1205 Lu cells in 0.2 mL of DMEM supplemented with 10% FBS subcutaneously injected above both left and right rib cages of 3- to 4-wk-old female athymic nude-Foxn1^nu mice (Harlan Laboratories, Indianapolis, Ind.). […] Body weight (grams) and dimensions of the developing tumors (mm^3) are measured at the time of drug treatment.

CC(C)c1ccc2c(c1)CCC1[C@](C)(CN)CCC[C@]21C (stereo partly drawn) [Leelamine, [(1R,4aS)-1,4a-dimethyl-7-(propan-2-yl)-1,2,3,4,4a,9,10,10a-octahydrophenanthren-1-yl]methanamine]
body weights of tumor bearing mice ([1]; UACC 903 and 1205 Lu xenograft nude mice, i.p. 2.5-7.5 mg/kg daily): no significant differences
reduction of tumor volume, UACC 903 ([1]; intraperitoneally 2.5-7.5 mg/kg daily for 3-4 weeks, compared to DMSO vehicle): 61%
reduction of tumor growth development, oral ([1]; orally 40, 60 or 80 mg/kg, compared to DMSO control): ~45%
reduction of tumor volume, 1205 Lu [2]: 57%
